# In patent publication US9085555B2, “Complement pathway modulators and uses thereof” (priority 2011, dated 2015):
# Biological target: Factor D (Homo sapiens (Human), UniProt P00746)
# Assay: biochemical
# Type: biochemical
# Conditions: read-out: IC50
# Factor D, sequence (P00746 26-253): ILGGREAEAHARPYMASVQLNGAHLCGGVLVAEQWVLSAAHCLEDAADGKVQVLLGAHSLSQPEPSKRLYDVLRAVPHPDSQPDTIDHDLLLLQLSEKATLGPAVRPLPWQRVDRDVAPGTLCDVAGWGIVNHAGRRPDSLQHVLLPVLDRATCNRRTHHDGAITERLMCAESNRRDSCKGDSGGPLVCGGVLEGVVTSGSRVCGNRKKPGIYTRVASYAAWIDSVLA
row,Structure (SMILES),IC50 [µM]
1,"CC[C@H](C)[C@H](NC(=O)[C@@H]1C[C@@H](F)CN1C(=O)Nc1cn(C(N)=O)c2ccccc12)C(=O)O [Example 25, (2S,3S)-2-{[(2S,4R)-1-(1-Carbamoyl-1H-indol-3-ylcarbamoyl)-4-fluoro-pyrrolidine-2-carbonyl]-amino}-3-methyl-pentanoic acid]",6.75
2,"NC(=O)n1cc(NC(=O)N2C[C@@H](N)C[C@H]2C(=O)NCc2cccc(Cl)c2F)c2ccccc21 [Example 26, (2S,4S)-4-Amino-pyrrolidine-1,2-dicarboxylic acid 1-[(1-carbamoyl-1H-indol-3-yl)-amide]2-(3-chloro-2-fluoro-benzylamide)]",0.025
3,"NC(=O)n1cc(NC(=O)N2C[C@@H](N)C[C@H]2C(=O)Nc2ccccc2)c2ccccc21 [Example 27, (2S,4S)-4-Amino-pyrrolidine-1,2-dicarboxylic acid 1-[(1-carbamoyl-1H-indol-3-yl)-amide] 2-phenylamide]",8.3
4,"NC(=O)n1cc(NC(=O)N2C[C@@H](N)C[C@H]2C(=O)NCc2ccccc2)c2ccccc21 [Example 28, (2S,4S)-4-Amino-pyrrolidine-1,2-dicarboxylic acid 2-benzylamide 1-[(1-carbamoyl-1H-indol-3-yl)-amide]]",2.52
5,"NC(=O)n1cc(NC(=O)N2C[C@@H](N)C[C@H]2C(=O)NCc2cccc(Cl)c2)c2ccccc21 [Example 29, (2S,4S)-4-Amino-pyrrolidine-1,2-dicarboxylic acid 1-[(1-carbamoyl-1H-indol-3-yl)-amide] 2-(3-chloro-benzylamide)]",0.588
6,"Cc1cccc(CNC(=O)[C@@H]2C[C@H](N)CN2C(=O)Nc2cn(C(N)=O)c3ccccc23)c1 [Example 30, (2S,4S)-4-Amino-pyrrolidine-1,2-dicarboxylic acid 1-[(1-carbamoyl-1H-indol-3-yl)-amide] 2-(3-methyl-benzylamide)]",2.7
7,"NC(=O)n1cc(NC(=O)N2C[C@@H](N)C[C@H]2C(=O)NCc2cccc(C(F)(F)F)c2)c2ccccc21 [Example 31, (2S,4S)-4-Amino-pyrrolidine-1,2-dicarboxylic acid 1-[(1-carbamoyl-1H-indol-3-yl)-amide] 2-(3-trifluoromethyl-benzylamide)]",12.2
8,"NC(=O)n1cc(NC(=O)N2C[C@@H](N)C[C@H]2C(=O)NCc2cccc(F)c2)c2ccccc21 [Example 32, (2S,4S)-4-Amino-pyrrolidine-1,2-dicarboxylic acid 1-[(1-carbamoyl-1H-indol-3-yl)-amide] 2-(3-fluoro-benzylamide)]",3.35
9,"N#Cc1cccc(CNC(=O)[C@@H]2C[C@H](N)CN2C(=O)Nc2cn(C(N)=O)c3ccccc23)c1 [Example 33, (2S,4S)-4-Amino-pyrrolidine-1,2-dicarboxylic acid 1-[(1-carbamoyl-1H-indol-3-yl)-amide] 2-(3-cyano-benzylamide)]",24.1
10,"NC(=O)n1cc(NC(=O)N2C[C@@H](N)C[C@H]2C(=O)NCc2cccc(Br)c2)c2ccccc21 [Example 34, (2S,4S)-4-Amino-pyrrolidine-1,2-dicarboxylic acid 2-(3-bromo-benzylamide) 1-[(1-carbamoyl-1H-indol-3-yl)-amide]]",0.09
11,"NC(=O)n1cc(NC(=O)N2C[C@@H](N)C[C@H]2C(=O)NCc2cccc(O)c2)c2ccccc21 [Example 35, (2S,4S)-4-Amino-pyrrolidine-1,2-dicarboxylic acid 1-[(1-carbamoyl-1H-indol-3-yl)-amide] 2-(3-hydroxy-benzylamide)]",2.85
12,"COc1cccc(CNC(=O)[C@@H]2C[C@H](N)CN2C(=O)Nc2cn(C(N)=O)c3ccccc23)c1 [Example 36, (2S,4S)-4-Amino-pyrrolidine-1,2-dicarboxylic acid 1-[(1-carbamoyl-1H-indol-3-yl)-amide] 2-(3-methoxy-benzylamide)]",3.25
13,"NC(=O)n1cc(NC(=O)N2C[C@@H](N)C[C@H]2C(=O)NCc2cccc(OC(F)(F)F)c2)c2ccccc21 [Example 37, (2S,4S)-4-Amino-pyrrolidine-1,2-dicarboxylic acid 1-[(1-carbamoyl-1H-indol-3-yl)-amide] 2-(3-trifluoromethoxy-benzylamide)]",22
14,"NC(=O)n1cc(NC(=O)N2C[C@@H](N)C[C@H]2C(=O)NCc2cccc(Oc3ccccc3)c2)c2ccccc21 [Example 38, (2S,4S)-4-Amino-pyrrolidine-1,2-dicarboxylic acid 1-[(1-carbamoyl-1H-indol-3-yl)-amide] 2-(3-phenoxy-benzylamide)]",6.3
15,"NC(=O)n1cc(NC(=O)N2C[C@@H](N)C[C@H]2C(=O)NCc2cccc(-c3ccccc3)c2)c2ccccc21 [Example 39, (2S,4S)-4-Amino-pyrrolidine-1,2-dicarboxylic acid 2-[(biphenyl-3-ylmethyl)-amide] 1-[(1-carbamoyl-1H-indol-3-yl)-amide]]",1.05
16,"NC(=O)n1cc(NC(=O)N2C[C@@H](N)C[C@H]2C(=O)NCc2cccc(-n3cccc3)c2)c2ccccc21 [Example 40, (2S,4S)-4-Amino-pyrrolidine-1,2-dicarboxylic acid 1-[(1-carbamoyl-1H-indol-3-yl)-amide] 2-(3-pyrrol-1-yl-benzylamide)]",11.2
17,"NC(=O)n1cc(NC(=O)N2C[C@@H](N)C[C@H]2C(=O)NCc2cccc(-c3ccc(Cl)s3)c2)c2ccccc21 [Example 41, (2S,4S)-4-Amino-pyrrolidine-1,2-dicarboxylic acid 1-[(1-carbamoyl-1H-indol-3-yl)-amide] 2-[3-(5-chloro-thiophen-2-yl)-benzylamide]]",3.2
18,"NC(=O)n1cc(NC(=O)N2C[C@@H](N)C[C@H]2C(=O)NCc2ccc(-c3ccc(Cl)s3)s2)c2ccccc21 [Example 42, (2S,4S)-4-Amino-pyrrolidine-1,2-dicarboxylic acid 1-[(1-carbamoyl-1H-indol-3-yl)-amide] 2-[(5′-chloro-[2,2′]bithiophenyl-5-ylmethyl)-amide]]",2.85
19,"Cc1ccc(CNC(=O)[C@@H]2C[C@H](N)CN2C(=O)Nc2cn(C(N)=O)c3ccccc23)cc1 [Example 43, (2S,4S)-4-Amino-pyrrolidine-1,2-dicarboxylic acid 1-[(1-carbamoyl-1H-indol-3-yl)-amide] 2-(4-methyl-benzylamide)]",7.75
20,"NC(=O)n1cc(NC(=O)N2C[C@@H](N)C[C@H]2C(=O)NCc2ccc(C(F)(F)F)cc2)c2ccccc21 [Example 45, (2S,4S)-4-Amino-pyrrolidine-1,2-dicarboxylic acid 1-[(1-carbamoyl-1H-indol-3-yl)-amide] 2-(4-trifluoromethyl-benzylamide)]",22.5
21,"NC(=O)n1cc(NC(=O)N2C[C@@H](N)C[C@H]2C(=O)NCc2ccc(OC(F)(F)F)cc2)c2ccccc21 [Example 46, (2S,4S)-4-Amino-pyrrolidine-1,2-dicarboxylic acid 1-[(1-carbamoyl-1H-indol-3-yl)-amide] 2-(4-trifluoromethoxy-benzylamide)]",22.8
22,"NC(=O)n1cc(NC(=O)N2C[C@@H](N)C[C@H]2C(=O)NCc2ccc(O)cc2)c2ccccc21 [Example 47, (2S,4S)-4-Amino-pyrrolidine-1,2-dicarboxylic acid 1-[(1-carbamoyl-1H-indol-3-yl)-amide] 2-(4-hydroxy-benzylamide)]",8.95
